Measurements: the METLIN SMRT retention time set (Domingo-Almenara et al. 2019)

Assay: gradient 5% acetonitrile 3 min, to 50% in 2 min, to 85% in 15 min, held 3 min, 100 µL/min
Conditions: column: Zorbax Extend-C18 2.1 x 50 mm; eluents: water / acetonitrile, 0.1% formic acid
In short: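 In both positive and negative ionization mode, a quadrupole time-of-flight mass spectrometer coupled to HPLC analyzed pure standards run in mixtures of ~100 molecules. The Zorbax Extend-C18 column (2.1 × 50 mm, 1.8 μm) was operated at 100 μL/min with water and acetonitrile, each containing 0.1% formic acid. The dead volume was 40 μL and the dwell volume 900 μL. Retention time came from adduct peaks that were computationally picked and individually inspected by hand.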

| SMILES | RP-LC retention time [s] |
| --- | --- |
| COc1ccc(-c2nnc(NC(=O)c3ccc(S(=O)(=O)N(C)C)cc3)s2)c(OC)c1 | 808 |
| Cc1ccc(-c2nc(CCN(C)C(=O)Nc3cc(F)ccc3F)no2)cc1 | 994 |
| COc1ccccc1OCC1c2ccsc2CCN1C(=O)CN(CC1CC1)C(=O)C1CC1 (configuration not stated) | 928 |
| CCCC(C(=O)OCCN(CC)CC)(c1ccccc1)c1ccccc1 | 920 |
| COc1ccccc1CCC(=O)NCC(=O)Nc1nc2ccccc2[nH]1 | 652 |
| Cc1ccc(C(=O)NCc2ccc(-n3ccnc3)cc2)s1 | 602 |
| O=c1ccc(-c2ccco2)nn1CCCNS(=O)(=O)/C=C/c1ccccc1 | 759 |
| CC(=O)N1CCc2cc(C)c(S(=O)(=O)N3CCN(C)CC3)cc21 | 585 |
| O=C(Cc1ccc(NC(=O)CCS(=O)(=O)c2ccccc2)cc1)NCc1cccs1 | 701 |
| Cc1ccc(Cl)cc1NC(=O)C(=O)c1cccn1C | 878 |
| CCOC(=O)c1ccc(NC(=O)c2ccc(S(=O)(=O)N(C)C)cc2)cc1 | 833 |
| COc1ccc(NC(=O)c2ccc3[nH]c4c(c3c2)CN(C(C)=O)CC4)c(OC)c1 | 690 |
| COc1ccc(-c2nc(Nc3cnc(SC)nc3)sc2C)cc1 | 1050 |
| Oc1ccc2c3c1OC1C(O)CC[C@@]4(O)[C@@H](C2)N(CC2CCC2)CC[C@]314 (some centres not stated) | 619 |
| O=C(Cn1nc2c3cc(-c4ccc(F)cc4)nn3ccn2c1=O)N1CCN(c2ccc(F)cc2)CC1 | 920 |
| CCOc1ccc(CNC(=O)c2cc(S(=O)(=O)N3CCCCC3)c(C)n2C)cc1 | 1020 |
| O=C(Nc1cc2c3c(c1)CCC(=O)N3CCC2)C(=O)Nc1ccc2c(c1)OCO2 | 747 |
| O=C(Cn1nc2c3cc(-c4ccccc4)nn3ccn2c1=O)Nc1cccc(Br)c1 | 952 |
| COc1ccc(N2C(=O)C(O)=C(S(=O)(=O)c3ccccc3)C2c2ccccc2)cc1 (configuration not stated) | 854 |
| Cc1ccc(Nc2c(-c3cc(Br)ccc3F)nc3cccc(C)n23)cc1 | 814 |

| SMILES | RP-LC retention time [s] |
| --- | --- |
| O=C(NCC(O)c1cccc2ccccc12)c1c(F)cccc1Cl (configuration not stated) | 796 |
| COc1cc(NC(=O)CN2C(=O)C(C)(C)c3cc(C)ccc32)cc(OC)c1OC | 823 |
| CC(NC(=O)Cc1cccn1-c1ccc(F)cc1)c1ccccc1 (configuration not stated) | 962 |
| CCOC(=O)N1CCN(c2cc(C(=O)O)c3cc(NC(=O)c4ccccc4OC)ccc3n2)CC1 | 629 |
| Cn1c(CN(c2ccc(F)cc2)S(C)(=O)=O)nnc1SCc1nnc(-c2ccccc2)o1 | 710 |
| Cc1ccc(NC(=O)CN2C(=O)CN(C)C(=O)c3ccccc32)c(Br)c1 | 734 |
| COc1cc(CCC(=O)N2CCC3(CC2)NCc2ccccc2-n2ccnc23)on1 | 584 |
| CCN1CCn2cc(S(=O)(=O)NCc3ccc(C)cc3)cc2C1=O | 716 |
| O=C(Nc1nccs1)c1cn(Cc2ccc(F)cc2)cc2c(=O)n(-c3ccccc3)nc1-2 | 957 |
| COc1ccccc1CNc1nc2ccccc2nc1NS(=O)(=O)c1cccs1 | 1050 |
| O=C(C1CC1)N1CCC(F)(C(=O)NCC2CC2)CC1 | 631 |
| O=C(CSCc1ccccc1)Nc1nnc(-c2ccsc2)o1 | 757 |
| Cc1ccc(-c2ccc(-n3nc(C)c(S(=O)(=O)N4CCN(C)CC4)c3C)nn2)cc1 | 695 |
| O=C1/C(=C/c2ccccc2)C[C@@]2(O)[C@H]3Cc4ccc(O)c5c4[C@@]2(CCN3CC2CC2)[C@H]1O5 | 724 |
| COCCCNC(=O)c1ccc2c(c1)CCCN2S(C)(=O)=O | 667 |
| Cc1ccc(C)c(NC(=O)Cn2c(N)nc(C)cc2=O)c1 | 596 |
| CCCn1c(=O)c2cc(C(=O)NCc3ccc(F)cc3Cl)nn2c2ccccc21 | 834 |
| CCOC(=O)COc1cc(-c2ccccc2)nc2ccc(NC(=O)c3ccco3)cc12 | 743 |
| COc1cccc(CN2CCn3c(nnc3[C@@H]3C[C@@H](O)CN3C)C2)c1OC | 549 |

The next lines start with the values.

| RP-LC retention time [s] | SMILES |
| --- | --- |
| 958 | CC1(C(=O)NCc2ccccc2)CCCN(C(=O)Nc2ccccc2C(F)(F)F)C1 (configuration not stated) |
| 708 | O=C(Nc1cccc(Br)c1)N1C[C@H]2C[C@H](C1)[C@H]1CCCC(=O)N1C2 |
| 662 | CCOC(=O)C1=C(CNC2CCCCC2)NC(=O)NC1c1ccc(C)cc1 (configuration not stated) |
| 759 | COc1ccc(S(=O)(=O)N2CC3CN(C(=O)CC(C)C)CC(C2)O3)cc1 |
| 626 | O=C(NCc1ccccn1)c1c2c(nc3ccccc13)C(=O)N(C1CCCCC1)C2 |
| 587 | COc1ccc(C(=O)N2CCCn3cc(-c4ccccc4F)nc32)cn1 |
| 813 | O=C(c1nccc2ccccc12)N1CCCCC1c1nc(C2CC2)no1 (configuration not stated) |
| 648 | CCC1CN(C(=O)N2CCC(C(=O)NCCCN3CCOCC3)CC2)c2cc(C)ccc2O1 (configuration not stated) |
| 806 | O=C(NCCc1csc(-c2ccccc2)n1)C1CCN(C(=O)COc2ccccc2)CC1 |
| 946 | O=C(NCc1ccc(F)cc1)N1CCCC1c1nc(-c2cccc(F)c2)no1 (configuration not stated) |
| 632 | COc1cc([C@@H]2c3cc4c(cc3[C@H](O)[C@@H](CO)[C@@H]2C(=O)N2CCOCC2)OCO4)cc(OC)c1OC |
| 615 | O=C(C1CCN(c2nc3ccc(-c4cccnc4)nc3s2)CC1)N1CCCC1 |
| 887 | O=C(NCC1(c2cccs2)CC1)c1ccc(F)c(F)c1 |
| 881 | COC(=O)c1cc(S(=O)(=O)N2CCCC2C(=O)NC2CCCCCC2)cn1C (configuration not stated) |
| 828 | Cc1nc2ccn(Cc3ccco3)c(=O)c2cc1C(=O)NCCC1=CCCCC1 |
| 562 | CC(C)S(=O)(=O)c1ccc(CC(=O)N2CC(c3nc4ccccc4[nH]3)C2)cc1 |
| 589 | O=C(CN1C(=O)COc2ccc(C(=O)N3CCCC3)cc21)NCCN1CCCCCC1 |
| 635 | CC(C)NC(=O)N1CC(c2nc(-c3cccnc3)no2)C2(CCOCC2)C1 (configuration not stated) |
| 744 | CC(=O)Nc1ccc(-n2cnc(C(=O)NC(C)CCc3ccccc3)c2)nc1 (configuration not stated) |
| 825 | O=C(Nc1cccnc1)C1CCCN(S(=O)(=O)c2cc(-c3noc(C4CCCC4)n3)cs2)C1 (configuration not stated) |
| 681 | Cc1cnc(C(=O)N2CCC(N3C(=O)C4(CCCC4)C3c3scnc3C)CC2)cn1 (configuration not stated) |
| 654 | Cc1oc(C2CCN(C(=O)c3ccc(C#N)cc3)CC2)nc1C(=O)N(C)C |
| 576 | Cc1nc([C@@H]2CN(C(=O)c3cccn3C)C[C@H]2C(N)=O)n[nH]1 |
| 962 | Cc1ccc(-c2nnc(-c3cccnc3N3CCC4(CC3)OCCO4)o2)cc1 |

| RP-LC retention time [s] | SMILES |
| --- | --- |
| 743 | CCc1ccc(NC(=O)Cn2cnc3nc(N4CCCC(C(=O)NC5CC5)C4)sc3c2=O)cc1 (configuration not stated) |
| 820 | Cc1oc(C2CCN(C(=O)Cc3ccccc3Cl)CC2)nc1C(=O)N1CCCC1 |
| 997 | COc1ccc(-c2noc(Cc3nnc(-c4ccc(C)c(C)c4)o3)n2)cc1OC |
| 589 | O=C(NCc1cccs1)NC1CC(=O)N(C2CC2)C1 (configuration not stated) |
| 797 | COc1ccc(OC)c(CNC(=O)C2CCN(c3nnc(-c4ccccc4)o3)CC2)c1 |
| 577 | CC(C)CN1C(=O)c2cccn2CC1C(=O)NCCCN1CCOCC1 (configuration not stated) |
| 837 | O=C(NC1CCN(c2nnc3ccc(Cl)cn23)CC1)c1ccc(C(F)(F)F)s1 |
| 715 | CC(C)NC(=O)N1CC(c2nc(-c3ccccc3)no2)C2(CCOCC2)C1 (configuration not stated) |
| 1140 | Cc1ccc(-c2noc(-c3cccc(S(=O)(=O)Nc4ccc5c(c4)OCCO5)c3)n2)cc1 |
| 899 | O=C(NCc1cccc(Br)c1)C1CCCN(c2ccc(=O)n(-c3cccc(F)c3)n2)C1 (configuration not stated) |
| 830 | COc1ccc(Cc2nc(-c3cccc(-c4ccn[nH]4)c3)no2)cc1OC |
| 799 | Cc1nc(-c2cccc(F)c2)sc1C(=O)N(C)C |
| 672 | CC1CN(C(=O)N2CCC(C(=O)N3CCN(c4ccccn4)CC3)CC2)c2cc(Cl)ccc2O1 (configuration not stated) |
| 797 | COc1ccc(-c2nc(C3CC(=O)N(c4ccc(OC)c(OC)c4)C3)no2)c(OC)c1 (configuration not stated) |
| 868 | Cc1noc(-c2ccc(OC3CN(C(=O)c4cc(F)ccc4F)C3)cc2)n1 |
| 649 | CC1CCC(NC(=O)C2CCN(c3nc4ccccc4[nH]3)CC2)CC1 (configuration not stated) |
| 791 | O=C(C1=CN(c2ccc(Cl)cc2)c2ccccc2S1(=O)=O)N1CCOCC1 |
| 978 | COc1ccc(-c2noc(C3CCCN3C(=O)C3CCCC3)n2)cc1 (configuration not stated) |
| 657 | CN1CCCn2nc(C3CCN(C(=O)NCCc4ccccc4)CC3)cc2C1=O |
| 758 | CCc1cccc(NC(=O)C2CCCN(c3ncnc4c3nc3n4CCCCC3)C2)c1 (configuration not stated) |
| 910 | CC1CCN(S(=O)(=O)c2cccn(CC(=O)N3CCCc4ccccc43)c2=O)CC1 |
| 1020 | Cc1nc(-c2ccc(C(F)(F)F)cc2)ncc1C(=O)NCc1ccco1 |
| 529 | CCN(CC)c1ccc(NC(=O)CSc2ccc(N3CCCC(C(=O)NC4CC4)C3)nn2)c(C)c1 (configuration not stated) |
| 782 | COc1ccc(-c2noc(-c3ccc(NCC4CCCO4)nn3)n2)cc1 (configuration not stated) |
